Laboratory results reported in patent publication US9278962B2 (Cytokinetics, Inc., priority 2011, dated 2016).

Test system: rabbit skeletal myofibrils (approximately 90% fast fibers)
Test: Activation of fast skeletal myofibrils (PUMA coupled-enzyme ATPase assay, AC1.4)
Assay type: biochemical
Conditions: Table 2; concentration at which the compound increased enzymatic activity by 40%; calcium at pCa25
Method: Rabbit skeletal myofibrils were prepared based upon the method of Herrmann et al. (Biochem. 32(28):7255-7263(1993). Myofibrils were prepared from rabbit psoas muscle purchased from Pel-Freez Biologicals (Arkansas) within 2 days of ordering, stored on ice. Minced muscle was homogenized in 10 volumes of ice-cold “standard” buffer (50 mM Tris, pH 7.4, 0.1 M potassium acetate, 5 mM KCl, 2 mM DTT, 0.2 mM PMSF, 10 μM leupeptin, 5 μM pepstatin, and 0.5 mM sodium azide) containing 5 mM EDTA and 0.5% Triton X-100 using an Omni-Macro homogenizer. Myofibrils were recovered by low speed centrifugation (3000 rpm for 10 minutes) and washed 2 times in the Triton X-100 containing buffer to ensure removal of cellular membrane. Following the Triton washes, myofibrils were washed 3 times in “standard” buffer containing 2 mM magnesium acetate. A final wash in assay buffer (12 mM PIPES, pH 6.8, 60 mM KCl, 1 mM DTT) was performed and brought to 10% sucrose for flash freezing in liquid nitrogen and storage at −80° C.
Fast fiber activators were identified by measuring the enzymatic activity of muscle myofibril preparations using the proprietary PUMA™ (see, e.g., U.S. Pat. Nos. 6,410,254, 6,743,599, 7,202,051, and 7,378,254) assay system. Myofibril preparations consisted of rabbit skeletal muscle (approximately 90% fast fibers) that had been mechanically homogenized and washed with a detergent (triton X-100) to remove cellular membranes. This preparation retained all of the sarcomeric components in a native conformation and the enzymatic activity was still regulated by calcium. Compounds were tested using a myofibril suspension and a level of calcium sufficient to increase enzymatic activity of the myofibrils to 25% of their maximal rate (termed pCa25). Enzymatic activity was tracked via a pyruvate kinase and lactate dehydrogenase-coupled enzyme system. This assay regenerates myosin-produced ADP into ATP by oxidizing NADH, producing an absorbance change at 340 nm. The buffering system was 12 mM Pipes, 2 mM MgCl2, 1 mM DTT at pH 6.8 (PM12 buffer).
Using procedures similar to those described herein, utilizing reagents and intermediates commercially available (e.g., Sigma-Aldrich) or readily synthesized by one of skill in the art, the compounds in Table 2, Table 3, Table 4 and Table 5 were synthesized, characterized and tested. AC1.4 values were determined according to the procedure described in Example 6, and the reported median AC1.4 values are as follows: A=<1 uM; B=1-10 uM; C=10-20 uM; D=>20 uM.

SMILES | Mean AC1.4
CC(C)(CNc1nc(-c2ccccc2O)ns1)c1ccc(F)cc1 [2-(5-{[2-(4-fluorophenyl)-2-methylpropyl]amino}-1,2,4-thiadiazol-3-yl)phenol] | B (B=1-10 uM)
CC(C)(CNc1nc(CCCNC(=O)CN)ns1)c1ccc(F)cc1 [2-amino-N-[3-(5-{[2-(4-fluorophenyl)-2-methylpropyl]amino}(1,2,4-thiadiazol-3-yl))propyl]acetamide] | B (B=1-10 uM)
CC(C)(CNc1nc(CNC(=O)CN)ns1)c1ccc(F)cc1 [2-amino-N-[(5-{[2-(4-fluorophenyl)-2-methylpropyl]amino}(1,2,4-thiadiazol-3-yl))methyl]acetamide] | C (C=10-20 uM)
CC(C)(CNc1nc(-c2ccc(C(N)=O)c(F)c2)ns1)c1ccc(F)cc1 [2-fluoro-4-(5-{[2-(4-fluorophenyl)-2-methylpropyl]amino}(1,2,4-thiadiazol-3-yl))benzamide] | A (A=<1 uM)
CC(C)(CNc1nc(-c2ccc(C#N)c(F)c2)ns1)c1ccc(F)cc1 [2-fluoro-4-(5-{[2-(4-fluorophenyl)-2-methylpropyl]amino}(1,2,4-thiadiazol-3-yl))benzenecarbonitrile] | B (B=1-10 uM)
CC(C)(CNc1nc(-c2ccc(F)c(C(N)=O)c2)ns1)c1ccc(F)cc1 [2-fluoro-5-(5-{[2-(4-fluorophenyl)-2-methylpropyl]amino}(1,2,4-thiadiazol-3-yl))benzamide] | A (A=<1 uM)
CC(C)(CNc1nc(-c2ccc(F)c(C#N)c2)ns1)c1ccc(F)cc1 [2-fluoro-5-(5-{[2-(4-fluorophenyl)-2-methylpropyl]amino}(1,2,4-thiadiazol-3-yl))benzenecarbonitrile] | B (B=1-10 uM)
CN(CCO)Cc1nsc(NCC(C)(C)c2ccc(F)cc2)n1 [2-{[(5-{[2-(4-fluorophenyl)-2-methylpropyl]amino}(1,2,4-thiadiazol-3-yl))methyl]methylamino}ethan-1-ol] | D (D=>20 uM)
CC(C)(CNc1nc(CNCCO)ns1)c1ccc(F)cc1 [2-{[(5-{[2-(4-fluorophenyl)-2-methylpropyl]amino}-1,2,4-thiadiazol-3-yl)methyl]amino}ethan-1-ol] | D (D=>20 uM)
NC(=O)c1cccc(-c2nc(NCCCc3ccccc3)ns2)c1 [3-(3-(3-phenylpropylamino)-1,2,4-thiadiazol-5-yl)benzamide] | D (D=>20 uM)
NC(=O)c1cccc(-c2nc(NCCc3ccccc3)ns2)c1 [3-(3-(phenethylamino)-1,2,4-thiadiazol-5-yl)benzamide] | D (D=>20 uM)
CC(C)(CNc1nsc(-c2cccc(C(N)=O)c2)n1)c1ccc(F)cc1 [3-(3-{[2-(4-Fluorophenyl)-2-methylpropyl]amino}-1,2,4-thiadiazol-5-yl)benzamide] | B (B=1-10 uM)

Same assay, conditions: Table 3; concentration at which the compound increased enzymatic activity by 40%; calcium at pCa25

SMILES | Mean AC1.4
N#Cc1ccccc1-c1nnc(NCC2(c3ncccc3F)CCC2)s1 [2-(5-((1-(3-fluoropyridin-2-yl)cyclobutyl)methylamino)-1,3,4-thiadiazol-2-yl)benzonitrile] | B (B=1-10 uM)
N#Cc1ccc(C#N)c(-c2nnc(NC[C@]3(c4ncccc4F)C[C@H](F)C3)s2)c1 [2-(5-((3-fluoro-1-(3-fluoropyridin-2-yl)cyclobutyl)methylamino)-1,3,4-thiadiazol-2-yl)terephthalonitrile] | B (B=1-10 uM)
NC(=O)c1cccc(-c2nnc(NCC3(c4ncccc4F)CCC3)s2)c1 [3-(5-((1-(3-fluoropyridin-2-yl)cyclobutyl)methylamino)-1,3,4-thiadiazol-2-yl)benzamide] | A (A=<1 uM)
N#Cc1cccc(-c2nnc(NCC3(c4ncccc4F)CCC3)s2)c1 [3-(5-((1-(3-fluoropyridin-2-yl)cyclobutyl)methylamino)-1,3,4-thiadiazol-2-yl)benzonitrile] | B (B=1-10 uM)
Cc1ccc(C(N)=O)cc1-c1nnc(NC[C@]2(c3ncccc3F)C[C@H](F)C2)s1 [3-(5-((3-fluoro-1-(3-fluoropyridin-2-yl)cyclobutyl)methylamino)-1,3,4-thiadiazol-2-yl)-4-methylbenzamide] | A (A=<1 uM)
Cc1ccc(C#N)cc1-c1nnc(NC[C@]2(c3ncccc3F)C[C@H](F)C2)s1 [3-(5-((3-fluoro-1-(3-fluoropyridin-2-yl)cyclobutyl)methylamino)-1,3,4-thiadiazol-2-yl)-4-methylbenzonitrile] | B (B=1-10 uM)

Same assay, conditions: Table 4; concentration at which the compound increased enzymatic activity by 40%; calcium at pCa25

SMILES | Mean AC1.4
N#Cc1ccc2nc(NCC3(c4ncccc4F)CCC3)sc2c1 [2-((1-(3-fluoropyridin-2-yl)cyclobutyl)methylamino)benzo[d] thiazole-6-carbonitrile] | B (B=1-10 uM)
NC(=O)c1ccc2nc(NCC3(c4ncccc4F)CCC3)sc2c1 [2-((1-(3-fluoropyridin-2-yl)cyclobutyl)methylamino)benzo[d] thiazole-6-carboxamide] | B (B=1-10 uM)
COc1cccnc1C1(CNc2nc3ccc(C#N)cc3s2)CCC1 [2-((1-(3-methoxypyridin-2-yl)cyclobutyl)methylamino)benzo[d] thiazole-6-carbonitrile] | D (D=>20 uM)
COc1cccnc1C1(CNc2nc3ccc(C(N)=O)cc3s2)CCC1 [2-((1-(3-methoxypyridin-2-yl)cyclobutyl)methylamino)benzo[d] thiazole-6-carboxamide] | B (B=1-10 uM)
N#Cc1ccc2nc(NCC3(c4ccc(F)cc4)CCC3)sc2c1 [2-((1-(4-fluorophenyl)cyclobutyl)methylamino) benzo[d]thiazole-6-carbonitrile] | A (A=<1 uM)
NC(=O)c1ccc2nc(NCC3(c4ccc(F)cc4)CCC3)sc2c1 [2-((1-(4-fluorophenyl)cyclobutyl)methylamino) benzo[d]thiazole-6-carboxamide] | A (A=<1 uM)
COc1ccc(C2(CNc3nc4ccc(C#N)cc4s3)CCC2)nc1 [2-((1-(5-methoxypyridin-2-yl)cyclobutyl)methylamino)benzo[d] thiazole-6-carbonitrile] | D (D=>20 uM)
COc1ccc(C2(CNc3nc4ccc(C(N)=O)cc4s3)CCC2)nc1 [2-((1-(5-methoxypyridin-2-yl)cyclobutyl)methylamino)benzo[d] thiazole-6-carboxamide] | C (C=10-20 uM)
COc1cccc(C2(CNc3nc4ccc(C#N)cc4s3)CCC2)n1 [2-((1-(6-methoxypyridin-2-yl)cyclobutyl)methylamino)benzo[d] thiazole-6-carbonitrile] | B (B=1-10 uM)
COc1cccc(C2(CNc3nc4ccc(C(N)=O)cc4s3)CCC2)n1 [2-((1-(6-methoxypyridin-2-yl)cyclobutyl)methylamino)benzo[d] thiazole-6-carboxamide] | B (B=1-10 uM)
N#Cc1ccc2nc(NCC3(c4ccccn4)CCC3)sc2c1 [2-((1-(pyridin-2-yl)cyclobutyl)methylamino)benzo[d] thiazole-6-carbonitrile] | C (C=10-20 uM)
NC(=O)c1ccc2nc(NCC3(c4ccccn4)CCC3)sc2c1 [2-((1-(pyridin-2-yl)cyclobutyl)methylamino)benzo[d] thiazole-6-carboxamide] | B (B=1-10 uM)
N#Cc1ccc2sc(NC[C@]3(c4ncccc4F)C[C@H](F)C3)nc2c1 [2-((3-fluoro-1-(3-fluoropyridin-2-yl)cyclobutyl)methylamino)benzo[d] thiazole-5-carbonitrile] | C (C=10-20 uM)
NC(=O)c1ccc2sc(NC[C@]3(c4ncccc4F)C[C@H](F)C3)nc2c1 [2-((3-fluoro-1-(3-fluoropyridin-2-yl)cyclobutyl)methylamino)benzo[d] thiazole-5-carboxamide] | C (C=10-20 uM)
NC(=O)c1cccc2nc(NC[C@]3(c4ncccc4F)C[C@H](F)C3)sc12 [2-((3-fluoro-1-(3-fluoropyridin-2-yl)cyclobutyl)methylamino)benzo[d] thiazole-7-carboxamide] | D (D=>20 uM)
N#Cc1ccc2nc(N)sc2c1 [2-aminobenzo[d]thiazole-6-carbonitrile] | D (D=>20 uM)
